In PubChem BioAssay (NCI):
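Where inhibition never reached the appropriate level, the endpoint shown equals the highest concentration tested. Otherwise, values were interpolated linearly from a five-concentration, 48-hour dose response in 96-well plates. GI50: concentration for 50% inhibition of growth. The concentration for full growth arrest is given as TGI.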

Columns and labels:
Assay in all cases: inhibition of tumour cell growth, NCI panel, 48 h
M14 melanoma = tested on: M14 melanoma
HCC-2998 colon = tested on: HCC-2998 colon
MDA-MB-231 breast = tested on: MDA-MB-231 breast
MDA-MB-435 = tested on: MDA-MB-435
U251 CNS = tested on: U251 CNS
IGROV1 ovarian = tested on: IGROV1 ovarian
786-0 renal = tested on: 786-0 renal
SNB-75 CNS = tested on: SNB-75 CNS
RPMI-8226 leukemia = tested on: RPMI-8226 leukemia
COLO 205 colon = tested on: COLO 205 colon
UO-31 renal = tested on: UO-31 renal
ACHN renal = tested on: ACHN renal
SNB-19 CNS = tested on: SNB-19 CNS
NCI-H226 lung = tested on: NCI-H226 lung
SK-OV-3 ovarian = tested on: SK-OV-3 ovarian
HL-60(TB) leukemia = tested on: HL-60(TB) leukemia
DU-145 prostate = tested on: DU-145 prostate
OVCAR-4 ovarian = tested on: OVCAR-4 ovarian
BT-549 breast = tested on: BT-549 breast
NCI-H460 lung = tested on: NCI-H460 lung
EKVX NSCLC = tested on: EKVX NSCLC
HT29 colon = tested on: HT29 colon
MALME-3M melanoma = tested on: MALME-3M melanoma
SF-295 CNS = tested on: SF-295 CNS
SN12C renal = tested on: SN12C renal
KM12 colon = tested on: KM12 colon
NCI-H23 lung = tested on: NCI-H23 lung
HS 578T breast = tested on: HS 578T breast
OVCAR-8 ovarian = tested on: OVCAR-8 ovarian
NCI/ADR-RES ovarian = tested on: NCI/ADR-RES ovarian
SK-MEL-28 melanoma = tested on: SK-MEL-28 melanoma
UACC-62 melanoma = tested on: UACC-62 melanoma
LOX IMVI melanoma = tested on: LOX IMVI melanoma
HOP-62 NSCLC = tested on: HOP-62 NSCLC
HOP-92 NSCLC = tested on: HOP-92 NSCLC
UACC-257 melanoma = tested on: UACC-257 melanoma
RXF 393 renal = tested on: RXF 393 renal
SW-620 colon = tested on: SW-620 colon
K-562 leukemia = tested on: K-562 leukemia
SR leukemia = tested on: SR leukemia
T-47D breast = tested on: T-47D breast
SF-539 CNS = tested on: SF-539 CNS
SK-MEL-2 melanoma = tested on: SK-MEL-2 melanoma
PC-3 prostate = tested on: PC-3 prostate
NCI-H522 lung = tested on: NCI-H522 lung
HCT-116 colon = tested on: HCT-116 colon
MCF7 breast = tested on: MCF7 breast
A549 NSCLC = tested on: A549 NSCLC
CAKI-1 renal = tested on: CAKI-1 renal
CCRF-CEM leukemia = tested on: CCRF-CEM leukemia
OVCAR-5 ovarian = tested on: OVCAR-5 ovarian
SK-MEL-5 melanoma = tested on: SK-MEL-5 melanoma
A498 renal = tested on: A498 renal
MOLT-4 leukemia = tested on: MOLT-4 leukemia
TK-10 renal = tested on: TK-10 renal
SF-268 CNS = tested on: SF-268 CNS

Question: What does the source list for FC(F)(F)c1cc(Br)cc(-c2cc(-c3ccc4c(c3)OCCO4)[nH]n2)c1?
Answer: GI50 (M14 melanoma): 76.5 nM; TGI (M14 melanoma): > 38600 nM; GI50 (HCC-2998 colon): 290 nM; TGI (HCC-2998 colon): > 100000 nM; GI50 (MDA-MB-231 breast): 78.5 nM; TGI (MDA-MB-231 breast): > 100000 nM; GI50 (MDA-MB-435): 26.4 nM; TGI (MDA-MB-435): 773 nM; GI50 (U251 CNS): 78.5 nM; TGI (U251 CNS): 4860 nM; GI50 (IGROV1 ovarian): 153 nM; TGI (IGROV1 ovarian): > 100000 nM; GI50 (786-0 renal): 56.5 nM; TGI (786-0 renal): 3780 nM; GI50 (SNB-75 CNS): 120 nM; TGI (SNB-75 CNS): 925 nM; GI50 (RPMI-8226 leukemia): 306 nM; TGI (RPMI-8226 leukemia): > 22900 nM; GI50 (COLO 205 colon): 109 nM; TGI (COLO 205 colon): 283 nM; GI50 (UO-31 renal): 201 nM; TGI (UO-31 renal): > 100000 nM; GI50 (ACHN renal): 75.2 nM; TGI (ACHN renal): > 100000 nM; GI50 (SNB-19 CNS): 108 nM; TGI (SNB-19 CNS): > 100000 nM; GI50 (NCI-H226 lung): 214 nM; TGI (NCI-H226 lung): > 100000 nM; GI50 (SK-OV-3 ovarian): 124 nM; TGI (SK-OV-3 ovarian): > 56600 nM; GI50 (HL-60(TB) leukemia): 33.6 nM; GI50 (DU-145 prostate): 284 nM; TGI (DU-145 prostate): > 100000 nM; TGI (OVCAR-4 ovarian): > 100000 nM; GI50 (BT-549 breast): 56.7 nM; TGI (BT-549 breast): 2220 nM; GI50 (NCI-H460 lung): 60.5 nM; TGI (NCI-H460 lung): 13900 nM; GI50 (EKVX NSCLC): 645 nM; TGI (EKVX NSCLC): > 100000 nM; GI50 (HT29 colon): 42.6 nM; TGI (HT29 colon): 533 nM; GI50 (MALME-3M melanoma): 1600 nM; TGI (MALME-3M melanoma): > 100000 nM; GI50 (SF-295 CNS): 31.8 nM; GI50 (SN12C renal): 144 nM; TGI (SN12C renal): 4400 nM; GI50 (KM12 colon): 59.6 nM; TGI (KM12 colon): > 52100 nM; GI50 (NCI-H23 lung): 376 nM; TGI (NCI-H23 lung): > 100000 nM; GI50 (HS 578T breast): 259 nM; TGI (HS 578T breast): > 100000 nM; GI50 (OVCAR-8 ovarian): 213 nM; TGI (OVCAR-8 ovarian): 1470 nM; GI50 (NCI/ADR-RES ovarian): 51.7 nM; TGI (NCI/ADR-RES ovarian): > 100000 nM; GI50 (SK-MEL-28 melanoma): 2680 nM; TGI (SK-MEL-28 melanoma): > 100000 nM; GI50 (UACC-62 melanoma): 39 nM; TGI (UACC-62 melanoma): > 100000 nM; GI50 (LOX IMVI melanoma): 29.6 nM; TGI (LOX IMVI melanoma): > 100000 nM; GI50 (HOP-62 NSCLC): 226 nM; TGI (HOP-62 NSCLC): > 100000 nM; GI50 (HOP-92 NSCLC): 1150 nM; TGI (HOP-92 NSCLC): 5510 nM; GI50 (UACC-257 melanoma): 2710 nM; TGI (UACC-257 melanoma): > 100000 nM; GI50 (RXF 393 renal): 47.8 nM; TGI (RXF 393 renal): 450 nM; GI50 (SW-620 colon): 54 nM; TGI (SW-620 colon): > 100000 nM; GI50 (K-562 leukemia): 37.3 nM; TGI (K-562 leukemia): > 100000 nM; GI50 (SR leukemia): 36.4 nM; TGI (SR leukemia): > 100000 nM; GI50 (T-47D breast): 683 nM; TGI (T-47D breast): > 100000 nM; GI50 (SF-539 CNS): 65.1 nM; TGI (SF-539 CNS): 757 nM; GI50 (SK-MEL-2 melanoma): 162 nM; TGI (SK-MEL-2 melanoma): > 100000 nM; GI50 (PC-3 prostate): 70.5 nM; TGI (PC-3 prostate): > 38500 nM; GI50 (NCI-H522 lung): 23.6 nM; TGI (NCI-H522 lung): 69.4 nM; GI50 (HCT-116 colon): 42.4 nM; TGI (HCT-116 colon): 1620 nM; GI50 (MCF7 breast): 59 nM; TGI (MCF7 breast): > 100000 nM; GI50 (A549 NSCLC): 146 nM; TGI (A549 NSCLC): > 38100 nM; GI50 (CAKI-1 renal): 79.3 nM; TGI (CAKI-1 renal): > 100000 nM; GI50 (CCRF-CEM leukemia): 87.5 nM; TGI (CCRF-CEM leukemia): > 39500 nM; GI50 (OVCAR-5 ovarian): 348 nM; TGI (OVCAR-5 ovarian): > 100000 nM; GI50 (SK-MEL-5 melanoma): 84.1 nM; TGI (SK-MEL-5 melanoma): 2540 nM; GI50 (A498 renal): 36.3 nM; TGI (A498 renal): 283 nM; GI50 (MOLT-4 leukemia): 196 nM; TGI (MOLT-4 leukemia): > 100000 nM; GI50 (TK-10 renal): 12300 nM; TGI (TK-10 renal): 63400 nM; GI50 (SF-268 CNS): 753 nM; TGI (SF-268 CNS): > 100000 nM
